{
  "source": "patent US20090186854A1",
  "about": "“S-ALKYLISOTHIOURONIUM DERIVATIVES FOR THE TREATMENT OF INFLAMMATORY DISEASES” (Meditor Pharmaceuticals Ltd., priority 2006, published 2009)",
  "key": {"rats": {"test_system": "rats", "assay": "Animal toxicological studies (single or repeated dose, LD50)"}, "healthy male subjects": {"test_system": "healthy male subjects", "assay": "Phase I clinical trial, safety of escalating doses", "type": "in vivo, human", "conditions": "12 healthy male subjects", "protocol": "Based on animal toxicological studies and on the accumulated data on human patients, S-ethylisothiouronium diethylphosphate was approved for a Phase I clinical trial. In this study, the pharmacokinetic profile as well as safety of escalating doses (0.6-2.4 mg/kg) of S-ethylisothiouronium diethylphosphate were assessed in 12 healthy male subjects."}},
  "data": [
    {"substance": "S-ethylisothiouronium diethylphosphate", "values": [
      {"measurement": "LD50", "setting": "rats; in rats", "value": "up to 400 mg/kg"},
      {"measurement": "LD50 relative to therapeutically recommended dose", "setting": "rats; rats LD50 vs therapeutically recommended dose of 0.6-1.2 mg/kg", "value": "300-400 fold"},
      {"measurement": "Adverse events", "setting": "healthy male subjects; doses up to 1.2 mg/kg", "value": "no recorded adverse events"},
      {"measurement": "Well tolerated dose", "setting": "healthy male subjects; escalating doses 0.6-2.4 mg/kg", "value": "up to 1.2 mg/kg"}
    ]}
  ]
}
